Data as given in paper PMC4167698, “Fatty Acid Esters of Phloridzin Induce Apoptosis of Human Liver Cancer Cells through Altered Gene Expression” (PLoS ONE, 2014).

Assays:
[1] = test system: HepG2 cells; assay: MTS cell proliferation assay, HepG2; type: cell-based, human; settings: MTS
Procedure: (§1) Cell viability was determined by using the MTS assay. In brief, HepG2 cells (5×10^3 cells/100 µL/well), MDA-MB-231 (5×10^3 cells/100 µL/well), THP-1 (25×10^3/100 µL/well), normal human and rat hepatocytes (1×10^4 cells/100 µL/well) were plated in triplicate, in a 96 well sterile flat bottom tissue culture plates. […] Thereby, cells were exposed to various concentrations (0.1, 1, 10, 25, 50, 75, 100 µM) of each treatment. Controls consist of cells with media containing DMSO (<0.5%), test blank wells contained the test compound in media with no cells and blank wells contained media with no cells. After additional 3, 6, 12, 18 or 24 h, 20 µL of the MTS reagent in combination with the electron coupling agent, phenazine methosulfate were added to the wells and cells were incubated in a humidified incubator for 3 h. Absorbance at 490 nm (OD490) was measured by using a Flurostar Optima microplate reader (BMG Labtech, Cary, NC, USA) to obtain the number of viable cells relative to the control population. Percentage of viability of the test compound treated cells are expressed as percentage compared to control (<0.5% DMSO). […] The selective index (SI) of the fatty acid esters of phloridzin is defined as the ratio of cytotoxicity (EC50 values) on normal HP-F cells to solid cancer HepG2, MDA-MB-231 cells (SI = EC50 on HP-F cells/EC50 on solid cancer cells). Samples with SI values greater than three were considered to have high selectivity towards cancer cells.

[2] = test system: normal human hepatocytes (HP-F); assay: MTS cell viability assay, normal human hepatocytes; type: cell-based; settings: 24 h
Procedure: as §1

[3] = test system: THP-1 cells; assay: MTS cell proliferation assay, THP-1; type: cell-based, human; settings: MTS
Procedure: as §1

[4] = test system: MDA-MB-231 cells; assay: MTS cell proliferation assay, MDA-MB-231; type: cell-based, human; settings: MTS
Procedure: as §1

CC/C=C\C/C=C\C/C=C\C/C=C\C/C=C\C/C=C\CCC(=O)O [DHA, decosahexaenoic acid]
EC50 ([1]; HepG2, 3 h): > 100 µM | EC50 ([1]; HepG2, 6 h): > 100 µM | EC50 ([1]; HepG2, 12 h): > 100 µM | EC50 ([1]; HepG2, 18 h): > 100 µM | EC50 ([1]; HepG2, 24 h): > 100 µM | EC50 [2]: > 100 µM | EC50 ([3]; THP-1, 3 h): > 100 µM | EC50 ([3]; THP-1, 6 h): > 100 µM | EC50 ([3]; THP-1, 12 h): > 100 µM | EC50 ([3]; THP-1, 18 h): > 100 µM | EC50 ([3]; THP-1, 24 h): > 100 µM | EC50 ([4]; MDA-MB-231, 3 h): > 100 µM | EC50 ([4]; MDA-MB-231, 6 h): > 100 µM | EC50 ([4]; MDA-MB-231, 12 h): > 100 µM | EC50 ([4]; MDA-MB-231, 18 h): > 100 µM | EC50 ([4]; MDA-MB-231, 24 h): > 100 µM

COc1cccc2c1C(=O)c1c(O)c3c(c(O)c1C2=O)C[C@@](O)(C(C)=O)C[C@@H]3O[C@H]1C[C@H](N)[C@H](O)[C@H](C)O1 [Daunorubicin, daunorubicin]
EC50 ([3]; Homo sapiens, THP-1, 3 h): 48.1 ± 2.8 µM | EC50 ([3]; Homo sapiens, THP-1, 6 h): 35.2 ± 2.9 µM | EC50 ([3]; Homo sapiens, THP-1, 12 h): 12.6 ± 0.8 µM | EC50 ([3]; Homo sapiens, THP-1, 18 h): 1.4 ± 0.2 µM | EC50 ([3]; Homo sapiens, THP-1, 24 h): 0.02 ± 0.01 µM

COc1cccc2c1C(=O)c1c(O)c3c(c(O)c1C2=O)C[C@@](O)(C(=O)CO)C[C@@H]3O[C@H]1C[C@H](N)[C@H](O)[C@H](C)O1 [Doxorubicin, doxorubicin]
EC50 ([4]; Homo sapiens, MDA-MB-231, 3 h): > 100 µM | EC50 ([4]; Homo sapiens, MDA-MB-231, 6 h): > 100 µM | EC50 ([4]; Homo sapiens, MDA-MB-231, 12 h): 9.6 ± 0.2 µM | EC50 ([4]; Homo sapiens, MDA-MB-231, 18 h): 5.9 ± 0.3 µM | EC50 ([4]; Homo sapiens, MDA-MB-231, 24 h): 4.1 ± 0.1 µM

CC/C=C\C/C=C\C/C=C\C/C=C\C/C=C\CCCC(=O)O [EPA, eicosapentaenoic acid]
EC50 ([1]; Homo sapiens, HepG2, 3 h): > 100 µM | EC50 ([1]; Homo sapiens, HepG2, 6 h): > 100 µM | EC50 ([1]; Homo sapiens, HepG2, 12 h): > 100 µM | EC50 ([1]; Homo sapiens, HepG2, 18 h): > 100 µM | EC50 ([1]; Homo sapiens, HepG2, 24 h): > 100 µM | EC50 ([2]; Hepatocyte): > 100 µM | EC50 ([3]; Homo sapiens, THP-1, 3 h): > 100 µM | EC50 ([3]; Homo sapiens, THP-1, 6 h): > 100 µM | EC50 ([3]; Homo sapiens, THP-1, 12 h): > 100 µM | EC50 ([3]; Homo sapiens, THP-1, 18 h): > 100 µM | EC50 ([3]; Homo sapiens, THP-1, 24 h): > 100 µM | EC50 ([4]; Homo sapiens, MDA-MB-231, 3 h): > 100 µM | EC50 ([4]; Homo sapiens, MDA-MB-231, 6 h): > 100 µM | EC50 ([4]; Homo sapiens, MDA-MB-231, 12 h): > 100 µM | EC50 ([4]; Homo sapiens, MDA-MB-231, 18 h): > 100 µM | EC50 ([4]; Homo sapiens, MDA-MB-231, 24 h): > 100 µM
